In patent US20220112187A1, “PYRAZOLOPYRIDINE AMINE COMPOUNDS FOR THE TREATMENT OF AUTOIMMUNE DISEASE” (Hoffmann-La Roche Inc., priority 2018, published 2022):

Each molecule was assayed against T1, human TLR9 (Homo sapiens, UniProt Q9NR96) (assay: HEK293-Blue-hTLR-9 cells assay (SEAP reporter, ODN2006 stimulation)). Details: HEK293-Blue-hTLR9 cells, ODN2006 ligand, 20 hrs incubation.
T1 sequence (Q9NR96 26-1032): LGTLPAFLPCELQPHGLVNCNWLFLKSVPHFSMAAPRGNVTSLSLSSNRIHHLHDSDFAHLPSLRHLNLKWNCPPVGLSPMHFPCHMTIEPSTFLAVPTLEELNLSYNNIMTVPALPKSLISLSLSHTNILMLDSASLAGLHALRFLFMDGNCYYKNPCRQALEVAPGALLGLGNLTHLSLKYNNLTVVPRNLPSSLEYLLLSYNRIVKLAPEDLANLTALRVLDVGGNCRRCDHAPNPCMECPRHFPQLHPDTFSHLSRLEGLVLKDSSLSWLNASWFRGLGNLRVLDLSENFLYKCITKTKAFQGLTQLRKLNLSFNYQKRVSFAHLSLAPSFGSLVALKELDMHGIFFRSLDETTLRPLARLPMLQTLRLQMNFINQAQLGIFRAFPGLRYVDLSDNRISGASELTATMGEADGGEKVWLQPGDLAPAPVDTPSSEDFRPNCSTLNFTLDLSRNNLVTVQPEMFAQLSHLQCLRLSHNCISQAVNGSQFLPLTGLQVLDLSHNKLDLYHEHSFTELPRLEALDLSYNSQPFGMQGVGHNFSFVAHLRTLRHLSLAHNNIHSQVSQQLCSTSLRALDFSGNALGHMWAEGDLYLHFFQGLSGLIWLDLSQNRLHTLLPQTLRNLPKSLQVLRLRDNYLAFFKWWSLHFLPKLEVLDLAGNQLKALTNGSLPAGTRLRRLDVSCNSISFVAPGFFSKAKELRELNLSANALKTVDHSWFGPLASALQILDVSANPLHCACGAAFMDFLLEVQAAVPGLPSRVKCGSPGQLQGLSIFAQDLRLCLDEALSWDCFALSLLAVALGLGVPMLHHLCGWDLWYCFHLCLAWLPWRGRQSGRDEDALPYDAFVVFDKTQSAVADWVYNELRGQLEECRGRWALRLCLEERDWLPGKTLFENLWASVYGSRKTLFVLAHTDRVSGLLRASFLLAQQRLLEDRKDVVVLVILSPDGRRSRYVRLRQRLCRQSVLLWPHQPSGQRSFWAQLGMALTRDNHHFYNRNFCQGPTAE
Format: cell-based
In short: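 HEK293-Blue cells stimulated with ODN2006 (10 μL of 20 uM added) plus serially diluted compound, 1% DMSO final, for 20 hrs at 37° C. SEAP in supernatant measured with QUANTI-Blue after 2 hrs at 37° C, absorbance at 620-655 nm; antagonism seen as reduced reporter signal.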

Row | IC50 [µM] | SMILES
1 | 0.22 | C[C@@H]1CN(c2ccc(C#N)n3nccc23)C[C@H](CN2CC[C@H](N)[C@H](C)C2)O1 [Example 74, 4-[(2S,6R)-2-[[(3R,4S)-4-amino-3-methyl-1-piperidyl]methyl]-6-methyl-morpholin-4-yl]pyrazolo[1,5-a]pyridine-7-carbonitrile]
2 | 3.5 | C[C@@H]1CN(c2ccc(C#N)n3nccc23)C[C@H](CN2CCC3(CN(C)CCO3)C2)O1 (stereo partly drawn) [Example 76, 4-[(2R,6S)-2-methyl-6-[(9-methyl-6-oxa-2,9-diazaspiro[4.5]decan-2-yl)methyl]morpholin-4-yl]pyrazolo[1,5-a]pyridine-7-carbonitrile]
3 | 0.15 | C[C@@H]1CN(c2ccc(C#N)n3nccc23)C[C@H](CN2CCN(C3CCNCC3)CC2Cc2ccccc2)O1 (stereo partly drawn) [Example 77, 4-[(2S,6R)-2-[[2-benzyl-4-(4-piperidyl)piperazin-1-yl]methyl]-6-methyl-morpholin-4-yl]pyrazolo[1,5-a]pyridine-7-carbonitrile]
